From paper PMC10312377, “A conserved epitope in VAR2CSA is targeted by a cross-reactive antibody originating from Plasmodium vivax Duffy binding protein” (Frontiers in Cellular and Infection Microbiology, 2023)

Experiments:
[1] = test system: P. falciparum CS2 infected erythrocytes (VAR2CSA-expressing) binding to CSA; test: Inhibition of binding assay (IBA), static binding of IEs to CSA; assay type: cell-based; conditions: CS2 IEs preincubated with soluble CSA 250 µg/ml, positive control; relative to AE-BSA control
Protocol: CRP1 was conjugated to BSA (as carrier protein) at the N-terminus through an azide-alkyne cycloaddition and outsourced commercially to ProSci (California, USA) for rat immunizations. As controls, an unrelated peptide conjugate (P5-BSA), the PAMVAC vaccine candidate (ID1-ID2a region from VAR2CSA) and the carrier protein conjugated to the linker (azido-ethanol (AE-BSA)) were included. Briefly, two female Sprague Dawley rats (~11 weeks old) were immunized intraperitoneally on day 0 with 75 µg of each antigen formulated in PBS and Complete Freund’s Adjuvant (CFA) followed by 3 booster immunizations with 50 µg of antigen in Incomplete Freund’s Adjuvant at 2-week intervals. Sera were collected 14 days after the final boost.
P. falciparum CS2 parasites were cultured in vitro as described ([Trager and Jensen, 1976]). Parasites were selected for adhering to CSA every 3-4 weeks to enrich for parasites expressing VAR2CSA. […]
The ability of anti-CRP1 IgG to block parasite binding to CSA in vitro was assessed by a static binding assay ([Gnidehou et al., 2014]). […] After washing, spots were fixed with glutaraldehyde and stained with Giemsa before imaging using a EVOS FL Auto microscope (Invitrogen) and the number of parasites bound per spot was analyzed using ImageJ. Percent inhibition of binding was calculated relative to the counts from the AE-BSA control.

[2] = test system: 3D10 MAb (raised against PvDBP region II); test: Indirect ELISA, titration of 3D10 against coated peptides; assay type: binding, mouse; conditions: for 3D10 recognition of peptide by ELISA: peptide coated at 5 µg/ml, titration of 3D10, OD relative to isotype control IgG1
Protocol: (§1) Immunoglobulin G (IgG) reactivity was measured using the enzyme-linked immunosorbent assay (ELISA). Briefly, 96-well Maxisorb plates (catalogue no. 439454; Thermo Fisher Scientific) were coated with synthetic peptides and recombinant full-length VAR2CSA diluted in 1 x PBS and incubated overnight at 4°C. Coated plates were blocked with 4% bovine serum albumin (BSA, catalogue no. A7906; Sigma-Aldrich) for 1 h at 37°C, then washed once with 1 x PBST (0.1% Tween 20). Plates were incubated with primary antibody for 1 h at room temperature (RT) and washed four times with 1 x PBST. The washed plates were incubated at RT for 1 h with 100 µl of HRP-conjugated secondary antibody (goat anti-human HRP, catalogue no. ab98624, Abcam; goat anti-mouse HRP, catalogue no. 170-6516, Bio-Rad, Mississauga, Canada; goat anti-rat HRP catalogue no. 62-9520). After four washes, 100 µl of 3,3′,5,5′-Tetramethylbenzidine (TMB, catalogue no. T0440; Sigma-Aldrich) were added and the reaction was stopped after 30 mins with an equal volume of H2SO4 (0.5 N). Human sera were screened once, in duplicate. The optical density (OD) values were converted to arbitrary units relative to the positive control sera included on each plate using the formula: AU = ODtest -ODbackground/ODpositive control pool – ODbackground)*100. The positive control pool refers to the OD of a pool of Colombian or Ugandan samples that were seroreactive against the peptides or VAR2CSA, respectively. The background is the OD with secondary antibody alone. The cut-off for seropositivity was based on the mean AU of sera from 12 individual Colombians not exposed to malaria plus 2 standard deviations; data to generate the cut-off are from two independent experiments. Only sera that were above the cut-off for VAR2CSA seropositivity were screened against CRP1 and SD1CLIPS.

[3] = test system: 3D10 MAb binding to SD1CLIPS; test: Competition ELISA of 3D10 with SD1CLIPS as capture antigen; set-up: species or system mouse; conditions: 3D10 (1.72 µg/ml) pre-incubated 1 h RT with 10 µg/ml competing peptide; SD1CLIPS coated 1 µg/ml; compared with negative control peptide P10; 3 independent experiments
[4] = test system: 3D10 MAb binding to recombinant VAR2CSA (FCR3); test: Competition ELISA of 3D10 with VAR2CSA as capture antigen; set-up: species or system mouse; conditions: 3D10 (8.6 µg/ml) pre-incubated 1 h RT with 10 µg/ml competing peptide; VAR2CSA coated 1 µg/ml; 3 independent experiments
Protocol: as §1, with “The positive control pool refers to the OD of a pool of Colombian or Ugandan samples that were seroreactive against the peptides or VAR2CSA, respectively. The background is the OD with secondary antibody alone. The cut-off for seropositivity was based on the mean AU of sera from 12 individual Colombians not exposed to malaria plus 2 standard deviations; data to generate the cut-off are from two independent experiments. Only sera that were above the cut-off for VAR2CSA seropositivity were screened against CRP1 and SD1CLIPS.” left out

[5] = Isothermal titration calorimetry (ITC) of peptides with CSA; assay type: binding, Bovine; conditions: 25°C; for Binding to CSA by ITC: PBS with 0.5% acetonitrile pH 7.4, 50 µM peptide in cell, 1 mM CSA in syringe, 25 injections of 1.5 µl
Protocol: Bovine tracheal CSA was purchased from Sigma-Aldrich (Cat no C9819). The energetics of the binding of peptides to CSA was performed at 25°C, on a MicroCal PEAQ-ITC calorimeter (Malvern Panalytical, Malvern, USA). For all experiments, samples were prepared in PBS containing 0.5% acetonitrile, pH 7.4. The reference cell was loaded with autoclaved milli-Q ultra-pure water; the sample cell was loaded with peptide solution (50 µM) and the syringe was filled with 1 mM CSA solution (based on a molecular weight of 50 kDa). In each titration, 25 injections of 1.5 μl of the CSA solution were made into the sample cell. A spacing of 150 s between each injection was applied to enable the system to reach equilibrium. The ITC data were analyzed with MicroCal-PEAQ-ITC Analysis Software v1.41. Binding parameters such as the ΔH (enthalpy change) and the ΔS (entropy change) were determined by fitting the experimental binding isotherms with the ‘one set of sites’ fitting model and GraphPad Prism software (version 9) was used to plot the results.

[6] = test system: rat-CRP1 antibodies (sera of CRP1-BSA immunized rats); test: Indirect ELISA, reactivity of rat anti-CRP1 sera against peptides; assay type: binding; conditions: peptide coated 5 µg/ml, rat sera 1/100 dilution
Protocol: as §1, with “The positive control pool refers to the OD of a pool of Colombian or Ugandan samples that were seroreactive against the peptides or VAR2CSA, respectively. The background is the OD with secondary antibody alone. The cut-off for seropositivity was based on the mean AU of sera from 12 individual Colombians not exposed to malaria plus 2 standard deviations; data to generate the cut-off are from two independent experiments. Only sera that were above the cut-off for VAR2CSA seropositivity were screened against CRP1 and SD1CLIPS.” left out

Row | Substance | 3D10 recognition of peptide by ELISA [2] | Binding to CSA by ITC [5] | Recognition of peptide by rat-CRP1 antibodies (ELISA) [6] | also measured
1 | chondroitin sulfate A [Soluble CSA] | – | – | – | Percent inhibition of IE binding to CSA [1]: over 90%
2 | KKYISEKKQEWDKQKTKYENKYVGKSASDLLKEN [CRP1] | recognizes | heat release after each CSA injection, consistent with CSA binding to CRP1 | recognized | 3D10 recognition of peptide by ELISA compared with SD1CLIPS ([2]; both peptides coated at 1 µg/ml, titration of 3D10): substantially weaker; Competition for 3D10 binding to SD1CLIPS [3]: significant loss in SD1CLIPS recognition; Competition for 3D10 binding to VAR2CSA [4]: same binding inhibition toward VAR2CSA as compared to SD1CLIPS; Binding to CSA by ITC in the presence of 100 mM NaCl ([5]; 50 µM peptide, 1 mM CSA, in the presence of 100 mM NaCl): abrogated
3 | KAYISEKKQEWDKQKTKYENKYVGKSASDLLKEN [CRP1-K1510A] | partially reduced binding | – | – | –
4 | KQIWLKSKSKNKTEEKGKDYYQKEKYKANLEVSD [Scrambled CRP1 peptide, scrambled version of CRP1, reference compound] | poorly recognized | also bound to CSA | did not recognize | –
5 | KKYISEKKQEWDAQKTAYENAYVGKSASDLLKEN [CRP1-AAA] | completely abolished antibody recognition | – | – | –
